# Activity calls are given as the source filed them.
# Legend:
# [1] = biological target: Voltage-gated inwardly rectifying potassium channel KCNH2 (Homo sapiens, UniProt Q12809); test: concentration-dependent hERG rescue from blockers – cell-based, thallium flux, dose response (AID 2121); type: ADME
# [2] = biological target: T1, Sphingosine 1-phosphate receptor 2 (Homo sapiens, UniProt O95136); test: Dose Response Cell Based Assay for Agonists of the S1P2 Receptor of Purchased Analogues. [Related pubchem assays: 729, 843, 854, 736 ]; type: functional
# [3] = biological target: T1, Sphingosine 1-phosphate receptor 2; test: Dose Response Cell Based Assay for Agonists of the S1P2 Receptor. [Related pubchem assays: 729, 736, 843 ]; type: functional
# [4] = biological target: Serine/threonine-protein phosphatase PP1-alpha catalytic subunit (Homo sapiens, UniProt P62136); test: inhibition of protein phosphatase 1 activity – biochemical, fluorescence, dose response (AID 2394)
# [5] = biological target: Serine/threonine-protein phosphatase (Homo sapiens, UniProt Q9BPW0); test: inhibition of protein phosphatase 5 activity – biochemical, fluorescence, dose response (AID 2395)
# [6] = biological target: T2, Replicative DNA helicase DnaB (Mycobacterium tuberculosis, UniProt P9WMR3); test: DnaB intein splicing inhibitors, dose response, biochemical, cell-free fluorescence (AID 449749); type: functional
# T2 sequence (P9WMR3 whole entry): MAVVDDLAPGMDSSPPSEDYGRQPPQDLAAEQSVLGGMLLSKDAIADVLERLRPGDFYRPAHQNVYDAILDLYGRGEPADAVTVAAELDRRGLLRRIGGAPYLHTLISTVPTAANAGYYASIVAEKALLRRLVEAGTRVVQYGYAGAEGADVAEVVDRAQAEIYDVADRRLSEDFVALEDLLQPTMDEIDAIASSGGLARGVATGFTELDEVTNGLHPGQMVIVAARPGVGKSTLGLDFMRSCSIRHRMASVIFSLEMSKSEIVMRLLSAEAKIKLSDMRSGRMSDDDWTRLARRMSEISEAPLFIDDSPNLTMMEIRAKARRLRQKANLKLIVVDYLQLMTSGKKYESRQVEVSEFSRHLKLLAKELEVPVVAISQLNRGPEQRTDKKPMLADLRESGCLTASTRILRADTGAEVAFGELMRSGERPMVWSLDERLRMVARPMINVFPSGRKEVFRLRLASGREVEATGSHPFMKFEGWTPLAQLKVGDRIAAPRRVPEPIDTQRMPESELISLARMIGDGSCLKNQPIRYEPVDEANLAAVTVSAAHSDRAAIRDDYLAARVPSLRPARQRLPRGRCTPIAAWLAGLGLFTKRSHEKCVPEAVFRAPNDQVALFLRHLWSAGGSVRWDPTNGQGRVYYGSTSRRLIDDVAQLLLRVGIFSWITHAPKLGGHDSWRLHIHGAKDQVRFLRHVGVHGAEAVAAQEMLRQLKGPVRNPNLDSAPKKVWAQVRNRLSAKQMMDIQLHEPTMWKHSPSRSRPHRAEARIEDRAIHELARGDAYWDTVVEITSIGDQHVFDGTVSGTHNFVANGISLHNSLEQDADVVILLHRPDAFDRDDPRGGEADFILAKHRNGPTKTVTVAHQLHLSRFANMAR
# [7] = biological target: T3, Protein RecA (Mycobacterium tuberculosis, UniProt P9WHJ3); test: Fluorescence Cell-Free Homogeneous Dose Retest to Identify Inhibitors of RecA-Intein Splicing Activity. [Related pubchem assays (depositor defined):AID2097, AID2223, AID489010, AID492950]; type: functional
# T3 sequence (P9WHJ3 whole entry): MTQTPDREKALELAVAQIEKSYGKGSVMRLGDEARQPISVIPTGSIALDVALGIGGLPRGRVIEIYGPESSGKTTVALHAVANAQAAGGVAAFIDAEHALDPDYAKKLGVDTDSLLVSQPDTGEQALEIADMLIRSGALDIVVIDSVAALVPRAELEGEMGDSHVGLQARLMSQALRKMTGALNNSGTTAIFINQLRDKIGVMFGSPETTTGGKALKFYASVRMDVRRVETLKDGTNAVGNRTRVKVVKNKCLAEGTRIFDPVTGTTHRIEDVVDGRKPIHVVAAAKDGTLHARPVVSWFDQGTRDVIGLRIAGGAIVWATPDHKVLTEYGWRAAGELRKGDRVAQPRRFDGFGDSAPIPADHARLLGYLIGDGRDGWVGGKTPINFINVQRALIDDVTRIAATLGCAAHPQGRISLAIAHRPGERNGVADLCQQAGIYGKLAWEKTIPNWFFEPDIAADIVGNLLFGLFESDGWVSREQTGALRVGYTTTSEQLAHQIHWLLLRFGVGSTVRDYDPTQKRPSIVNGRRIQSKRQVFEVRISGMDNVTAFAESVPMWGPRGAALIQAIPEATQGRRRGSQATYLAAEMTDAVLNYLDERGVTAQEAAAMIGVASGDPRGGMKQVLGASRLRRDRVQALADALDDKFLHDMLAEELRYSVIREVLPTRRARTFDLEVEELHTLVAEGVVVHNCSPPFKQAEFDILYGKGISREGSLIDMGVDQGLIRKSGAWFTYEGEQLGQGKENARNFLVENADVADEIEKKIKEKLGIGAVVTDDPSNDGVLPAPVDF
# [8] = biological target: T4, Caspase-6 (Homo sapiens, UniProt P55212); test: inhibition of CASP6 peptide cleavage – biochemical, VEID-R110 fluorescence, cherry-pick, dose response (AID 720632)
# T4 sequence (P55212 whole entry): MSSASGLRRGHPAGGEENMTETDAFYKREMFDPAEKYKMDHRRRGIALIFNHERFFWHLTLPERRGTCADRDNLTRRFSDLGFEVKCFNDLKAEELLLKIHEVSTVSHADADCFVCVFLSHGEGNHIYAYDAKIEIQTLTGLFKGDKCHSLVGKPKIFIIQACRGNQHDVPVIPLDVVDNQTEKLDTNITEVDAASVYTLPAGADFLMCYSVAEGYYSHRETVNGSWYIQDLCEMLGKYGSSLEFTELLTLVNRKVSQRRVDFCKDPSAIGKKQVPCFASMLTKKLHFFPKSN
# [9] = biological target: T5, Tyrosyl-DNA phosphodiesterase 2 (Homo sapiens, UniProt O95551); test: potency against TDP2 phosphodiesterase activity – biochemical, epi absorbance, IC50, dose response (AID 743297)
# T5 sequence (O95551 whole entry): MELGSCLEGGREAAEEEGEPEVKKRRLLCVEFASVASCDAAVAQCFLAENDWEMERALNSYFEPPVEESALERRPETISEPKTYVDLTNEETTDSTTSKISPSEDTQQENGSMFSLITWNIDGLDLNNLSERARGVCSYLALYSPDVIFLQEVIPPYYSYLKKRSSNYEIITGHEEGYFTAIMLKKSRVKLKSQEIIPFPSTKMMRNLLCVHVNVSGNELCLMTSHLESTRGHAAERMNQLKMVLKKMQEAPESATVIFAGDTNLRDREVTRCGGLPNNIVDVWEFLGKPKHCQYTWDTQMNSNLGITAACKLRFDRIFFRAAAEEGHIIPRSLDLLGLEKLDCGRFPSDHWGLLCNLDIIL
# [10] = A High Throughput Confirmatory Assay used to Identify Novel Compounds that Inhibit Mycobacterium Tuberculosis in the absence of Glycerol.; type: functional
# [11] = M. tuberculosis growth inhibition, HTS (AID 449762); type: functional
# [12] = biological target: T6, Leucine aminopeptidase (Plasmodium falciparum 3D7, UniProt Q8IL11); test: P. falciparum M17LAP inhibitors, primary screen, biochemical, fluorogenic H-Leu-NHMec substrate, 1536-well (AID 1619); type: functional
# T6 sequence (Q8IL11 whole entry): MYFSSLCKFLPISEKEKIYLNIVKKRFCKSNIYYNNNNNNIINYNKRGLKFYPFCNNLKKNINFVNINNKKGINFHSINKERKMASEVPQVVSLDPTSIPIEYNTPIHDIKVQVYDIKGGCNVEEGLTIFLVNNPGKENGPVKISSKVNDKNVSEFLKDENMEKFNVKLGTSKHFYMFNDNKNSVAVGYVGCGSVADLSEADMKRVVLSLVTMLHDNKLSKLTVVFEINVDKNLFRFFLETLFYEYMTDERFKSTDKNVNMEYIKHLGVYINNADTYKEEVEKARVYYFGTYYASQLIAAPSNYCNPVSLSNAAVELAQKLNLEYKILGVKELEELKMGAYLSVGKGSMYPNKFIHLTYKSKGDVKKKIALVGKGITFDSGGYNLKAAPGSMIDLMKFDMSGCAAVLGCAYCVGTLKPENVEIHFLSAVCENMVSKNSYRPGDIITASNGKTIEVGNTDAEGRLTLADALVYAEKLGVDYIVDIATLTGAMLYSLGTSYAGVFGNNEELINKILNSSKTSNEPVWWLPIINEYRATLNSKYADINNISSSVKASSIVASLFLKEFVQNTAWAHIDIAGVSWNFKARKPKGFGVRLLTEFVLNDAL
# [13] = biological target: Aspartyl aminopeptidase (Plasmodium falciparum 3D7, UniProt Q8I2J3); test: Counterscreen for inhibitors of M1 and M17 aminopeptidases: QFRET-based biochemical high throughput dose response assay for inhibitors of the Plasmodium falciparum M18 Aspartyl Aminopeptidase (PFM18AAP). [Related PubChem assays: 1619 (Screening assay (M17LAP inhibitors).), 1445 (Screening assay (M1AAP inhibitors).)]
# [14] = biological target: Procathepsin L (Homo sapiens, UniProt P07711); test: CTSL1 protease inhibition – biochemical, QFRET, 1536-well, counter-screen for M1/M17 aminopeptidase inhibitor project, dose response (AID 2214)
# [15] = biological target: Complement C1s subcomponent (Homo sapiens, UniProt P09871); test: Complement C1s ELISA. [Related pubchem assays: 538, 787 ]; type: functional
# [16] = biological target: T7, RNA-binding protein pos-1 (Caenorhabditis elegans, UniProt G5EF15); test: disruptors of C. elegans POS-1 RNA interaction – biochemical, fluorescence polarization, dose response (AID 1964);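 further: purified POS-1 fused to maltose binding protein made in E. coli; potency of compounds blocking POS-1 binding to fluorescent RNA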
# T7 sequence (G5EF15 whole entry): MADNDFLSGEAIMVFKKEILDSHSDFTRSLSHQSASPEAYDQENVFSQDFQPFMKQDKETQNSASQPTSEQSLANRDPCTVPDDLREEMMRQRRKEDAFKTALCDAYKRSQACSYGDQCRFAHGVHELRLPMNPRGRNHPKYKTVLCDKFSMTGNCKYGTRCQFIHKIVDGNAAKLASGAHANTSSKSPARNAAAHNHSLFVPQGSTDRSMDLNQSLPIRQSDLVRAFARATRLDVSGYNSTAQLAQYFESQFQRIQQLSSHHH
# [17] = tested on: Streptococcus sp. 'group A'; test: Streptococcus pyogenes SK(-)GAS viability under kanamycin – luminescence, BacTiterGlo, confirmation, counter-screen for streptokinase expression inhibitor project, dose response (AID 1900); type: functional, organism-based
# [18] = biological target: T8, Zinc finger protein mex-5 (Caenorhabditis elegans, UniProt Q9XUB2); test: potency of MEX-5 RNA-binding blockers – biochemical, C. elegans, fluorescence polarization, dose response (AID 1960)
# T8 sequence (Q9XUB2 whole entry): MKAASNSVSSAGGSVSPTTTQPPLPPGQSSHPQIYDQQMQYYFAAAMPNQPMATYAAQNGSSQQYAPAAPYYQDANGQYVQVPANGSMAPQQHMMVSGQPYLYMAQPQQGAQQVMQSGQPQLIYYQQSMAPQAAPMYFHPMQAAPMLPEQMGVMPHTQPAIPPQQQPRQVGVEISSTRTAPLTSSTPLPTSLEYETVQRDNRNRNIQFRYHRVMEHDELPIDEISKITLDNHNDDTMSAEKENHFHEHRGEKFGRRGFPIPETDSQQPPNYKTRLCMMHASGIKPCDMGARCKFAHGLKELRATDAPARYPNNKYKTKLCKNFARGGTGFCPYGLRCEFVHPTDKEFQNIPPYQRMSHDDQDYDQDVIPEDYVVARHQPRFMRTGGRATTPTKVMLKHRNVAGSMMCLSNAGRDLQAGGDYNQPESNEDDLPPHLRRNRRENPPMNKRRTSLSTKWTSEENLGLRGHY
# [19] = biological target: T9, Streptokinase A (Streptococcus pyogenes serotype M1, UniProt P10520); test: viability-normalized secreted streptokinase activity reduction – plasminogen activation absorbance, OD405, dose response (AID 1914); type: functional, Streptococcus pyogenes M1 GAS;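 further: secreted streptokinase activity via plasminogen activation per viability signal from cell pellet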
# T9 sequence (P10520 whole entry): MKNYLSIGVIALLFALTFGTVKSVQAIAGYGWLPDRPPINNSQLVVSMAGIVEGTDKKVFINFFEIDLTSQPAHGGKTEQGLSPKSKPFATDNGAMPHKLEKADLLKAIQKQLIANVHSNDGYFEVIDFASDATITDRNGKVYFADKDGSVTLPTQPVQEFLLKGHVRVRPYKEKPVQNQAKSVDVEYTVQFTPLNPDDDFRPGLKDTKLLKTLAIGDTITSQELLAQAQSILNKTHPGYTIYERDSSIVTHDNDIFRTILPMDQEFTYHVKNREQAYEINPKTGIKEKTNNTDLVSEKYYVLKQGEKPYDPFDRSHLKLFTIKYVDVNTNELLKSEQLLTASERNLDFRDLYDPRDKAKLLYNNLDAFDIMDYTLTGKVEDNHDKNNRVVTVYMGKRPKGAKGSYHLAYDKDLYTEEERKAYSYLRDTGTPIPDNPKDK
# [20] = biological target: 14-3-3 protein gamma (Homo sapiens, UniProt P61981); test: modulators of 14-3-3 gamma client binding – dose response (AID 711); type: functional
# [21] = tested on: Streptococcus; test: GAS UMAA2166 growth inhibition – luminescence, BacTiterGlo, counter-screen for streptokinase expression inhibitor project, dose response (AID 1915); type: functional, organism-based;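 further: potency for reduction of bacterial viability or growth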
# [22] = biological target: Heat shock protein HSP 90-alpha (Homo sapiens, UniProt P07900); type: functional, organism-based
# T1 sequence (O95136 whole entry): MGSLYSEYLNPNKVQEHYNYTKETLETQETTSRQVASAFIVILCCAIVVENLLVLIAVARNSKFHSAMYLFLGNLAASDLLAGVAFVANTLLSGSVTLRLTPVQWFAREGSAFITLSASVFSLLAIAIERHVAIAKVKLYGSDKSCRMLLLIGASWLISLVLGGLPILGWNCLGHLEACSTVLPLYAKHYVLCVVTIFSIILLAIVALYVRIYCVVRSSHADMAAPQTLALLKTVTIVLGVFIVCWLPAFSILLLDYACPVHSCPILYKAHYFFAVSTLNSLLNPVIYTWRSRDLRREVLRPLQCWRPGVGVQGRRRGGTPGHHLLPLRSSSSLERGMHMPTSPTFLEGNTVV
# Chain of Complement C1s subcomponent (P09871 16-437 limits assumed): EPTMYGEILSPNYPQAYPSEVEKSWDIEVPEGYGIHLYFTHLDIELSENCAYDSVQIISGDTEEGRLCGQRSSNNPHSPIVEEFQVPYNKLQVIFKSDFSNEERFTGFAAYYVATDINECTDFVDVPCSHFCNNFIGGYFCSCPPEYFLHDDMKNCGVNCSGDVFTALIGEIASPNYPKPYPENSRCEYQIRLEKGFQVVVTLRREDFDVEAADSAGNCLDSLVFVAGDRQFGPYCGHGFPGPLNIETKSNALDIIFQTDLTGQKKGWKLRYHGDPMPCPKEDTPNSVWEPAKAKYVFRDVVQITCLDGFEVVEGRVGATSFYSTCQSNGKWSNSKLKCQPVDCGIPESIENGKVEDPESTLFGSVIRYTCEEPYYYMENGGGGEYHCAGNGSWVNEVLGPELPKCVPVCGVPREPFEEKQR
# Chain of Complement C1s subcomponent (P09871 438-688 limits assumed): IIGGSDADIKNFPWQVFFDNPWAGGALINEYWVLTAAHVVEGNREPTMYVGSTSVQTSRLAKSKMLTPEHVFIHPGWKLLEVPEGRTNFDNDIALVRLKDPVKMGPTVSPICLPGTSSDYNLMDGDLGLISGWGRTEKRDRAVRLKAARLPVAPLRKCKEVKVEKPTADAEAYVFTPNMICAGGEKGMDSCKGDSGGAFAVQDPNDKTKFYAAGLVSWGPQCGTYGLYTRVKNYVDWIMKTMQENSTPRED
# Chain of Serine/threonine-protein phosphatase PP1-alpha catalytic subunit (P62136 whole entry): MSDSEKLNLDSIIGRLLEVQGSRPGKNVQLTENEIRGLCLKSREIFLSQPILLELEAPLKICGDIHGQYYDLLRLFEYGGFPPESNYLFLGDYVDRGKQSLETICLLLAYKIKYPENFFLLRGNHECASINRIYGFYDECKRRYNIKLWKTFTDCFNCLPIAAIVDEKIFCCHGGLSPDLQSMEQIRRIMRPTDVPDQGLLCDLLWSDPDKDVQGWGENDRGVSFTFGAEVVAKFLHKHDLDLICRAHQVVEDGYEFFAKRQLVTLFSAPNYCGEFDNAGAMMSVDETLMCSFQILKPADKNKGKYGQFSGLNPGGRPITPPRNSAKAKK
# Chain of Serine/threonine-protein phosphatase (Q9BPW0 whole entry): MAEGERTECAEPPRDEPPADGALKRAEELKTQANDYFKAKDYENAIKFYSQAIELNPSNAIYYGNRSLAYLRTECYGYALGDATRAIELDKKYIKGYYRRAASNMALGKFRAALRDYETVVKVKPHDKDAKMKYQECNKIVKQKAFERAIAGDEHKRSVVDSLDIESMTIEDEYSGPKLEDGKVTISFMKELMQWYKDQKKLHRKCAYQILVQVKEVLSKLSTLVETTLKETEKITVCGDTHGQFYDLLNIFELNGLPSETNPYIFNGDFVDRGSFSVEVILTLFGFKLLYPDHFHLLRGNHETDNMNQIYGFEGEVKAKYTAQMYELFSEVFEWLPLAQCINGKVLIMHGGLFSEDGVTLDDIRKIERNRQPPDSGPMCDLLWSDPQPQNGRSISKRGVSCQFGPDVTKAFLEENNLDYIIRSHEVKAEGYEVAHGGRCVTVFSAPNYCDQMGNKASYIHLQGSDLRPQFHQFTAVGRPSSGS
# Chain of Procathepsin L (P07711 whole entry): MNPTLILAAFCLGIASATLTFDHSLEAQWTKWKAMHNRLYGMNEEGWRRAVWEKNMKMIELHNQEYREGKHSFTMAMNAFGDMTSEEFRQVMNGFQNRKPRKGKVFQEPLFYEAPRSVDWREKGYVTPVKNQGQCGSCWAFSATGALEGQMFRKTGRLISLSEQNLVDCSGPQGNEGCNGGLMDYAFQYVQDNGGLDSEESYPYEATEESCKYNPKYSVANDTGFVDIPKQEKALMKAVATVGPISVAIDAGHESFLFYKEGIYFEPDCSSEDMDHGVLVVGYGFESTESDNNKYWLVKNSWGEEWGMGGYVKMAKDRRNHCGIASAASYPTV
# Chain of Aspartyl aminopeptidase (Q8I2J3 whole entry): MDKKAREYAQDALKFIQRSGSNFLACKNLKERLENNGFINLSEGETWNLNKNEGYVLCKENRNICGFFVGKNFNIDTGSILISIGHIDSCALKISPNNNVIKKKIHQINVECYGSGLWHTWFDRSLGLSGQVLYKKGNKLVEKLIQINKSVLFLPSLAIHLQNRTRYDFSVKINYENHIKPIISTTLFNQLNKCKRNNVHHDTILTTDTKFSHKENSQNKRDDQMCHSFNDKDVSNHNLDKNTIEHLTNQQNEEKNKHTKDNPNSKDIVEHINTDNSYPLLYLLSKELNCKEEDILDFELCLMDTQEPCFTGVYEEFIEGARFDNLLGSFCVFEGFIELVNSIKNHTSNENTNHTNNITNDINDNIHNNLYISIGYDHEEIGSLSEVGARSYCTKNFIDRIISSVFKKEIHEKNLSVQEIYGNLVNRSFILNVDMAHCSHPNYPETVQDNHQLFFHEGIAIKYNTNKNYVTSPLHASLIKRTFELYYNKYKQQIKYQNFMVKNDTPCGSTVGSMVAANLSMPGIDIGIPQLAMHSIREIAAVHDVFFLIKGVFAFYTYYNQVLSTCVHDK
# Chain of Voltage-gated inwardly rectifying potassium channel KCNH2 (Q12809 whole entry): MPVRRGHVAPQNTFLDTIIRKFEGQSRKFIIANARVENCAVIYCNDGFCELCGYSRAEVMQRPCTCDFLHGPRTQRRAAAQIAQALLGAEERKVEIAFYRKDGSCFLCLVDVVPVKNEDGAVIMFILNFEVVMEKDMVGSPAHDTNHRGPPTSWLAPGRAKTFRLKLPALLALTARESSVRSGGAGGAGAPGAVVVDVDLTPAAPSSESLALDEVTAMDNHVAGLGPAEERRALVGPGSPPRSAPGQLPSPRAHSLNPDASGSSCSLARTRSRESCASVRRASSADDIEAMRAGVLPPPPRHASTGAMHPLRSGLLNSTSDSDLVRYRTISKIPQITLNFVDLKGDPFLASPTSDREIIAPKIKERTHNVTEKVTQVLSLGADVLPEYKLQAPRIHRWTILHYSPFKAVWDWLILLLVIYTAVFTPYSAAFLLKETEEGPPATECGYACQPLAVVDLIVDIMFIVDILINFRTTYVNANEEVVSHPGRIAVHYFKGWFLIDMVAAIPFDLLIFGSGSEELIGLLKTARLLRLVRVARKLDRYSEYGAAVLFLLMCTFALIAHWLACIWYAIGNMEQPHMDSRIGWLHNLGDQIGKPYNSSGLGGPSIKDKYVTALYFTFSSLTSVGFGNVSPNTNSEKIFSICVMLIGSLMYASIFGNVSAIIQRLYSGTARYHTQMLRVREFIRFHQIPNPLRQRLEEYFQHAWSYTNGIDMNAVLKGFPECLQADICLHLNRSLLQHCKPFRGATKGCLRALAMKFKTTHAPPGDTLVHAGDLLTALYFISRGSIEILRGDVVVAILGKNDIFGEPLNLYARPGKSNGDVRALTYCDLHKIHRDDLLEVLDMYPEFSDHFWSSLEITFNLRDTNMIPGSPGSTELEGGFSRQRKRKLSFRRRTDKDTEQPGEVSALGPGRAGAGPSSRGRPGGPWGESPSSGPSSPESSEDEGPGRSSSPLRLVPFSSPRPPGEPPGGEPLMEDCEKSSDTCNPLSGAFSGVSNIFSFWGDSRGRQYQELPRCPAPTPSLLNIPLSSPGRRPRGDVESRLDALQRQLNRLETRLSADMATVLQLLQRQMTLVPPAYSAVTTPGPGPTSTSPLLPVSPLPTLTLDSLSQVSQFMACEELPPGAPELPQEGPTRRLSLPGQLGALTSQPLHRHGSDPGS
# Chain of 14-3-3 protein gamma (P61981 whole entry): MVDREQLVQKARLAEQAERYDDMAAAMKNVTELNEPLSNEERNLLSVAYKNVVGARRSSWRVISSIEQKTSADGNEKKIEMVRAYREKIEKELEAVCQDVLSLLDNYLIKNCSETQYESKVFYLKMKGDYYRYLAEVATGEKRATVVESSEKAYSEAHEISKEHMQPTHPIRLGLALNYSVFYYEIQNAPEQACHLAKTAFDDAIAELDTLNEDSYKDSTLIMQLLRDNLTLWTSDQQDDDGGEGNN
structure (smiles),measurement,setting,value
CCN=C(S)N=NC1=C(O)c2cccc3cccc1c23,EC50,[1],0.26 µM (active)
Cc1cc(C(=O)CN2C(=O)CCC2=O)c(C)n1Cc1ccccc1,EC50,[2],1.2 µM (active)
same,EC50,[3],2.85 µM (active)
Oc1nc(Nc2ccccc2)cc2cc(Br)ccc12,IC50,[4],46.9 µM (not active)
same,IC50,[5],> 67 µM (not active)
same,AC50,[6],> 120 µM (inactive)
same,EC50,[7],7 µM (active)
same,AC50,[8],6.04 µM (active)
same,IC50,[9],32.2 µM (inactive)
Cc1nnc(SCc2ccccc2Cl)n(N)c1=O,IC50,[10],> 100 µM (active)
Cc1nc2ccc(NC(=O)N(C(C)C)C(C)C)cc2s1,IC50,[11],> 100 µM (active)
Cc1ccc(SCC2=NNC(=O)C2)cc1,IC50,[12],1.77 µM (active)
same,IC50,[13],> 73.5 µM (not active)
same,IC50,[14],> 59.6 µM (not active)
same,AC50,[6],3.72 µM (active)
same,EC50,[7],1.01 µM (active)
O=c1oc(-c2ccco2)nc2ccccc12,IC50,[15],> 50 µM (not active)
Nc1nonc1C(=O)NCC/N=C/c1cc(Cc2ccccc2)cc(Br)c1O,EC50,[16],> 300 µM (not active)
same,EC50,[17],5.35 µM (active)
same,EC50,[18],> 300 µM (not active)
same,EC50,[19],> 150 µM (not active)
same,IC50,[20],> 50 µM (not active)
same,EC50,[21],9.66 µM (active)
same,AC50,[22],1.24 µM (active)
